{
  "source": "patent US9119821B2",
  "about": "“Use of methionine sulfoximine to treat acute liver failure and other diseases caused by an inflammatory cytokine response” (priority 2010, dated 2015)",
  "key": {"TNF-α": {"test_system": "TNF-α", "text": "(§1) FIG. 6A, FIG. 6B, and FIG. 6C illustrate ELISA quantitation cytokine levels in plasma from LPS/D-GalN treated mice. The time zero values show the levels of each cytokine in negative control mice, not treated with LPS/D-GalN but injected with either saline (n=7) or MSO (n=7) three hours prior to be killed. […] For each cytokine, open circles represent cytokine levels in plasma isolated from mice pretreated with saline, and open diamonds represent cytokine levels in plasma isolated from mice pretreated with MSO prior to LPS/D-GalN treatment. FIG. 6A illustrates TNF-α levels. FIG. 6B illustrates IFN-γ levels. FIG. 6C illustrates IL-6 levels; and\n(§2) Tissue and plasma were collected from male mice, which were divided into two groups. One group was injected with saline three hours prior to LPS/D-GalN injections. The second group was given MSO three hours prior to being injected with LPS/D-GalN. Control mice (t=0) were treated with MSO or saline for 3 hours and then euthanized (not exposed to LPS/D-GalN). After LPS/D-GalN injection at time zero, tissue and plasma samples were collected at one-hour time intervals from 1 to 5 hours.\n(§3) Plasma was obtained by transferring blood to plasma separator tubes containing lithium heparin (BD Microtainer tubes). Plasma samples were immediately frozen on dry ice and stored at −80° C.\n(§4) TNF-α, IFN-γ, and IL-6 ELISA kits were obtained from eBioscience, and experiments were performed using the manufacturer's guidelines for 96-well plate experiments. One hundred microliters of plasma was used per well."}, "IFN-γ": {"test_system": "IFN-γ", "text": "as §1, §2, §3, §4"}, "IL-6": {"test_system": "IL-6", "details": "3 hours after LPS/D-GalN; without MSO peak 401±14 at two hours", "text": "as §1, §2, §3, §4"}, "STAT1": {"test_system": "STAT1", "details": "liver homogenates, five hours after LPS/D-GalN", "description": "(§5) Immunoblots of cleaved caspase-3 and phospho-STAT proteins: Liver homogenates were prepared from male mice five hours after IP administration of LPS/D-GalN. […] Glyceraldehyde-3-phosphate dehydrogenase (GAPDH—Chemicon, Milano, Italy) was used as a loading control)."}, "caspase-3": {"test_system": "caspase-3", "details": "mouse, in vivo", "description": "as §5"}, "[1]": {"test_system": "40 different mouse cytokines", "description": "as §2\nFor experiments analyzing plasma cytokines, the male mice from the groups described above were anesthetized using Avertin (solution of 15.5 mis of tert-amyl alcohol—Sigma #240486 and 25 g of 2-2-2 tribromoethanol—Sigma #T48402) and blood was collected by cardiac puncture. Plasma was obtained by transferring blood to plasma separator tubes containing lithium heparin (BD Microtainer tubes). Plasma samples were immediately frozen on dry ice and stored at −80° C.\nMouse cytokine array kits (Proteome Profiler Arrays—cat #ARY006) were obtained from R&D Systems and used according to the manufacturer's guidelines. Each array, which consisted of a nitrocellulose membrane spotted with 40 different mouse cytokines, was tested with two hundred microliters of plasma from one animal. Each condition was duplicated—two mice for each group. Control blots were from plasma collected from two untreated mice (not injected with LPS/D-GalN and/or MSO). For untreated and MSO-treated groups, plasma was collected at either 1 hour or 3 hours after LPS/D-GalN administration. The blots were developed using the Immun-Star WesternC Kit (BIO-RAD cat #170-5070) on a BIO-RAD imager. The corresponding Quantity One software of the BIO-RAD imager was used to quantify the signal obtained on the blots."}, "[2]": {"details": "i.p. injection of 50 mg/kg"}, "[3]": {"test_system": "CD1 mice injected with Jo2 antibody", "details": "mouse, in vivo", "description": "(§6) Animals were divided into two groups. Group one animals consisted of both male and female mice injected with LPS and D-GalN to induce hepatic failure. Survival was monitored post LPS/D-GalN administration and the time of injection was considered to be zero hour (t=0). Group two animals consisted of mice injected with MSO three hours prior to LPS and D-GalN administration. […] MSO (50 mg/kg body weight, Sigma #M5379) was also prepared in saline and administered IP. For analysis of the effect of MSO treatment on the cell death pathway activated by the Fas ligand, mice were pre-treated with MSO as described above, and at time zero were injected with Jo2 antibody ([…]).\n(§7) Animals were monitored continuously post LPS/D-GalN or Jo2 administration. […] The time of death was recorded as hours after LPS/D-GalN injection. Fisher's exact test was used to determine two-tailed p values for the statistical between the treated and untreated groups."}, "[4]": {"test_system": "CD1 mice treated with LPS/D-GalN", "assay": "Survival of mice with LPS/D-GalN induced acute liver failure", "type": "in vivo, mouse", "details": "50 mg/kg IP three hours prior to LPS/D-GalN", "text": "Six to eight week old CD1 mice are obtained from Charles River. Animals were housed in Wayne State University or University of Padova, Vallisneri Interdepartmental Complex animal quarters until the time of the experiment. Food was withdrawn the night before the day of the experiment. All experiments were approved by the Animal Investigation Committee of Wayne State University or by the Authority of the University of Padova and authorized by the Italian Ministry of Health.\nas §6, with “MSO (50 mg/kg body weight, Sigma #M5379) was also prepared in saline and administered IP.” left out\nas §7"}, "[5]": {"details": "one hour after LPS/D-GalN, versus LPS/D-GalN alone"}, "[6]": {"details": "three hours after LPS/D-GalN, same reduction in LPS/D-GalN animals without MSO"}},
  "note": "Read-outs that look alike come from different tables or passages of the source.",
  "data": [
    {"compound": "CS(=N)(=O)CC[C@H](N)C(=O)O", "note": "(stereo partly drawn) [MSO, methionine sulfoximine]", "values": [
      {"measurement": "plasma TNF-α level throughout the time course", "setting": "TNF-α; 1 to 5 hours after LPS/D-GalN", "value": "< 200", "unit": "pg/mL"},
      {"measurement": "plasma TNF-α level, peak, mean ± SEM", "setting": "TNF-α; 1 hour after LPS/D-GalN, saline pretreated 590±91, p<0.001", "value": "112 ± 35", "unit": "pg/mL"},
      {"measurement": "plasma TNF-α level in control mice", "setting": "TNF-α; t=0, injected three hours previously, not exposed to LPS/D-GalN, n=7", "value": "not detectable"},
      {"measurement": "plasma IFN-γ level", "setting": "IFN-γ; 1 hour after LPS/D-GalN, without MSO 0.84±0.25", "value": "0.19 ± 0.05", "unit": "pg/mL"},
      {"measurement": "plasma IFN-γ level", "setting": "IFN-γ; 4 hours after LPS/D-GalN, without MSO 41±11, p 0.01", "value": "5.0 ± 3.0", "unit": "pg/mL"},
      {"measurement": "plasma IL-6 level, peak, mean ± SEM", "setting": "IL-6", "value": "325 ± 27", "unit": "pg/mL"},
      {"measurement": "increase in STAT1 activation by LPS/D-GalN", "setting": "STAT1", "value": "eliminated"},
      {"measurement": "caspase-3 activation", "setting": "caspase-3", "value": "completely prevented"},
      {"measurement": "reduction of IL-6 in plasma", "setting": "[1]; [5]", "value": "> 50", "unit": "%"},
      {"measurement": "reduction of TNF-α in plasma", "setting": "[1]; [5]", "value": "> 50", "unit": "%"},
      {"measurement": "I-TAC in plasma", "setting": "[1]; three hours after LPS/D-GalN", "value": "not detected"},
      {"measurement": "JE in plasma", "setting": "[1]; three hours after LPS/D-GalN", "value": "either reduced or not detected"},
      {"measurement": "KC values", "setting": "[1]; three hours after LPS/D-GalN", "value": "same as in LPS/D-GalN animals"},
      {"measurement": "M-CSF values", "setting": "[1]; three hours after LPS/D-GalN", "value": "same for all three groups"},
      {"measurement": "MCP-5 in plasma", "setting": "[1]; three hours after LPS/D-GalN", "value": "increased"},
      {"measurement": "MIG in plasma", "setting": "[1]; three hours after LPS/D-GalN", "value": "not detected"},
      {"measurement": "MIP-1a in plasma", "setting": "[1]; three hours after LPS/D-GalN", "value": "either reduced or not detected"},
      {"measurement": "MIP-1b in plasma", "setting": "[1]; three hours after LPS/D-GalN", "value": "either reduced or not detected"},
      {"measurement": "MIP-2 in plasma", "setting": "[1]; three hours after LPS/D-GalN", "value": "increased"},
      {"measurement": "RANTES in plasma", "setting": "[1]; three hours after LPS/D-GalN", "value": "either reduced or not detected"},
      {"measurement": "TIMP-1 values", "setting": "[1]; three hours after LPS/D-GalN", "value": "reduced to approximately control values"},
      {"measurement": "TNF-α induction by LPS/D-GalN", "setting": "[1]; three hours after LPS/D-GalN", "value": "abrogated"},
      {"measurement": "induction of IFN-γ by LPS/D-GalN", "setting": "[1]; three hours after LPS/D-GalN", "value": "abolished"},
      {"measurement": "induction of IL-1ra by LPS/D-GalN", "setting": "[1]; three hours after LPS/D-GalN", "value": "abolished"},
      {"measurement": "induction of IL-6 by LPS/D-GalN", "setting": "[1]; three hours after LPS/D-GalN", "value": "abolished"},
      {"measurement": "induction of IL-16 by LPS/D-GalN", "setting": "[1]; three hours after LPS/D-GalN", "value": "abolished"},
      {"measurement": "induction of IL-23 by LPS/D-GalN", "setting": "[1]; three hours after LPS/D-GalN", "value": "abolished"},
      {"measurement": "reduction of IL-1a level", "setting": "[1]; three hours after LPS/D-GalN", "value": "more than 50%"},
      {"measurement": "reduction of IP-10", "setting": "[1]; three hours after LPS/D-GalN", "value": "more than 50%"},
      {"measurement": "number of elevated cytokines reduced by pretreatment", "setting": "[1]; three hours after LPS/D-GalN, 22 of the 40 cytokines elevated", "value": 20},
      {"measurement": "reduction in C5a", "setting": "[1]; [6]", "value": "10-20%"},
      {"measurement": "reduction in sICAM", "setting": "[1]; [6]", "value": "10-20%"},
      {"measurement": "lowering of plasma glutamine concentrations", "setting": "[2]", "value": "about 50%"},
      {"measurement": "effect on survival after Fas pathway induction", "setting": "[3]", "value": "no effect on survival"},
      {"measurement": "female survival", "setting": "[4]; female CD1 mice, n=14, without pretreatment 27%, p<0.005", "value": 81, "unit": "%"},
      {"measurement": "male survival", "setting": "[4]; male CD1 mice, n=21, without pretreatment 19%, p<0.002", "value": 71, "unit": "%"}
    ]}
  ]
}
